Paper PMC8752827, “Towards a generic prototyping approach for therapeutically-relevant peptides and proteins in a cell-free translation system” (Nature Communications, 2022)
Entries after “also recorded” stand apart in the source; their conditions may differ. Where a SMILES comes first, the peptide text is derived from it. Bridges are numbered along the chain shown (N, C = ends). Where no end group is shown, it is not given here.

What was measured:
[1] = test system: peptidyl-prolyl isomerase; details: 10 μM inhibitor in Ec CFS translation reaction; Supplementary Fig. 19
Description: For details, refer to a procedure overview in the Supplementary Methods. Briefly, E. coli S30 extract was prepared as described by Schwarz et al.[68] with minor modifications. Briefly, cells were cultivated in 5–10 L of filter-sterilized TBGG media (tryptone 12 g/L, yeast extract 24 g/L, glycerol 8 mL/L, glucose 1 g/L, KH2PO4 2.31 g/L, K2HPO4 2.54 g/L) to OD 3.5, pre-chilled with 5 × 200 or 10 × 200 mL of –80 °C pre-frozen packs of LB broth and spun at 2.5 kg for 15 min. The cell pellet from the final wash was resuspended in 200 % (vol/wt) of S30B buffer and disrupted using fluidic disruption (Constant Systems, continuous flow mode) at 20 kpsi at 4 °C. Cell homogenate was cleared by two consecutive 30 min centrifugation steps at 30 kg at 4 °C while collecting the top ¾ of supernatant every time. The final supernatant was adjusted to 0.4 M with 5 M NaCl followed by 45 min incubation at 42 °C in a water bath. […]
Fluorescence DHFR activity assay was performed by monitoring the change in NADPH fluorescence (Ex 340 nm, […]) upon its conversion to NADP^+ in 200 µL of buffer containing 20 mM Tris-HCl pH 7.5, 100 mM NaCl, 1 mM Mg(OAc)2, 0.012% Tween 20, 2.5 mM DTT in a black 96-well plate (Corning). […] Fluorescence changes were recorded for 4 h. […]

Trypsin = biological target: T1, Trypsin (Bos taurus, UniProt P00760); assay: Trypsin-inhibitory assay; assay type: biochemical; details: for HillSlope / LogEC50: trypsin inhibition curve, nonlinear fit, variable slope, best-fit value
T1 construct: gene PRSS1
T1 sequence (P00760 24-246): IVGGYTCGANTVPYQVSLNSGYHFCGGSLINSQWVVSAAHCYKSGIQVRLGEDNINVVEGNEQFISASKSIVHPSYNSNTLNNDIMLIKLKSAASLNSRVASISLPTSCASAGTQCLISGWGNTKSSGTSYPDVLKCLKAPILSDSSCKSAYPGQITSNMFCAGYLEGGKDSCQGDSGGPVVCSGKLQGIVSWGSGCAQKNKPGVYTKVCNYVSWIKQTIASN
Description: Trypsin was freshly prepared at 400 pM in the assay buffer containing 0.1 M NaCl, 10 mM CaCl2, 0.005% Triton X-100, 0.1 M Tris-HCl pH 8.0. […] After incubation residual trypsin activity was measured by adding the quenched fluorescent peptide substrate Boc-Q-A-R- 7-amido-4-methyl-coumarin to a final concentration of 10 μM. The fluorescence increase upon the release of 7-amido-4-methyl-coumarin was monitored on Infinite M1000 Pro plate reader (Tecan) every 30 s using excitation and emission wavelengths of 360 and 460 nm, respectively.

[2] = test system: Drosophila melanogaster fruit flies; assay: Insecticidal activity assay (microinjection, LD50); assay type: in vivo; details: microinjection of 50 nL into female Drosophila melanogaster, lethal effects at 24 h; thrombin-cleaved cell-free Dc1a
Description: The insecticidal activity of the Dc1a and its cell-free produced analog was tested by microinjection in female Drosophila melanogaster fruit flies aged 3–4 days with an average weight of 0.8–0.9 mg according to the previously described method. Briefly, the C-terminally unprocessed Dc1a (Dc1a-GTGSGG-[…]) was dissolved in water for injection, and water was used as the respective negative control. The thrombin-cleaved Dc1a sample (Dc1a-GTGSGG-R) contained thrombin and the respective amount of thrombin was added to the control sample. The injection volume was 50 nL and three repeats of seven doses (each in n = 8 fruit flies) were used for each Dc1a analog. Female Drosophila were cooled on ice before injection. […] The number of control flies affected at the respective post-injection time was subtracted from the number of affected flies.

Molecule	HillSlope (Trypsin)	LogEC50 (Trypsin)	EC50 (Trypsin) [nM]	also measured
CO[C@H]1C[C@@H]2CC[C@@H](C)[C@@](O)(O2)C(=O)C(=O)N2CCCC[C@H]2C(=O)O[C@H]([C@H](C)C[C@@H]2CC[C@@H](O)[C@H](OC)C2)CC(=O)[C@H](C)/C=C(\C)[C@@H](O)[C@@H](OC)C(=O)[C@H](C)C[C@H](C)/C=C/C=C/C=C/1C [rapamycin, Rapamycin]	–	–	–	effect on the gain of hDHFR activity by exposure of GFP-hDHFR to lysate (post-translational capture) [1]: eliminated the beneficial effect of protein exposure to lysate in Ec CFS
CC[C@H](C)[C@@H]1NC(=O)[C@@H]2CCCN2C(=O)[C@@H]2CCCN2C(=O)[C@H]([C@@H](C)CC)NC(=O)[C@H](CO)NC(=O)[C@H](CCCCN)NC(=O)[C@H]([C@@H](C)O)NC(=O)[C@@H]2CSSC[C@H](NC1=O)C(=O)N[C@@H](Cc1ccccc1)C(=O)N1CCC[C@H]1C(=O)N[C@@H](CC(=O)O)C(=O)NCC(=O)N[C@@H](CCCNC(=N)N)C(=O)N2 [Chem_cyc-SFTI]	-1.291	2.234 log10 [SFTI], pM	–	–
GGVCPKILKKCRRDSDCPGACICRGNGYCGSGSDGLPRGSIDTWV (disulfide 4-21, 11-23, 17-29) [wtMCoTI-RGS]	–	–	0.609	trypsin-inhibitory activity / Ki for trypsin, compared in words (Trypsin; trypsin-inhibitory assay, comparison with the named counterpart): almost fourfold higher Ki for trypsin
ILKKCRRDSDCPGACICRGNGYCGSGSDGGVCPKGAGRGSIDTWV (disulfide 5-17, 11-23, 15-32) [prmMcoTI-RGS]	–	–	0.167	–
Dc1a-GTGSGG-R (bicyclic or more) [cell-free produced Dc1a harboring GTGSGGR on its C-terminus after thrombin cleavage]	–	–	–	insecticidal activity, in words [2]: showed the expected biological activity; also recorded: insecticidal activity similar to the synthetic wild-type toxin
CC[C@H](C)[C@H](NC(=O)[C@@H]1CCCN1C(=O)[C@@H]1CCCN1C(=O)[C@@H](NC(=O)[C@@H](N)CO)[C@@H](C)CC)C(=O)N[C@H]1CSSC[C@@H](C(=O)N[C@H](C(=O)N[C@@H](CCCCN)C(=O)O)[C@@H](C)O)NC(=O)[C@H](CCC(N)=O)NC(=O)CNC(=O)[C@H](CC(=O)O)NC(=O)[C@@H]2CCCN2C(=O)[C@H](Cc2ccccc2)NC1=O [Cell-free_oMut-SFTI] (H-SIPPICFPDGQCTK-OH; disulfide 6-12; C-terminus assumed)	-1.405	2.696 log10 [SFTI], pM	–	–
